The values below are quoted from earlier work in patent US6461603B2, “Water-soluble polymer conjugates of artelinic acid” (Shearwater Corporation, priority 2000, dated 2002).

Take `C[C@@H]1CC[C@H]2[C@@H](C)C(OCc3ccc(C(=O)O)cc3)O[C@@H]3O[C@]4(C)CC[C@@H]1[C@]32OO4` (some centres unmarked) [artelinic acid]: where the note is “background statement”, the water solubility result was “low”.
`C[C@H]1[C@@H](OCc2ccc(C(=O)O)cc2)O[C@@H]2O[C@]3(C)CC[C@H]4[C@H](C)CC[C@@H]1[C@@]24OO3` [sodium artelinate]: where the note is “physiological pH, higher pH required for desirable solubility”, the “solubility at physiological pH” value is “not highly soluble”.
